Data from PubChem BioAssay AID256 (DTP/NCI, 2004).
Several values for one entry are separate records, joined by “and”; a condition that tells them apart may be missing. Equal values may be shown once. Inconclusive results and toxic doses are left out.

Tested on: CD2F1 mice, L1210 leukemia ip, survival T/C
Test: NCI In Vivo Anticancer Drug Screen. Data for tumor model L1210 Leukemia (intraperitoneal) in CD2F1 (CDF1) mice
Settings: higher = longer survival
Summary of the method: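 Implant tumor; dose compound or vehicle; measure endpoint in both groups; report treated divided by control.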

[1] = endpoint: mean survival time, dose: 100.0 mg/kg/injection, schedule: Q04DX003 (ip), vehicle: saline with Tween-80
[2] = endpoint: mean survival time, dose: 200.0 mg/kg/injection, schedule: Q04DX003 (ip), vehicle: saline with Tween-80
[3] = endpoint: mean survival time, dose: 400.0 mg/kg/injection, schedule: Q04DX003 (ip), vehicle: saline with Tween-80
[4] = endpoint: mean survival time, dose: 25.0 mg/kg/injection, schedule: Q01DX009 (ip), vehicle: saline with Tween-80
[5] = endpoint: mean survival time, dose: 50.0 mg/kg/injection, schedule: Q01DX009 (ip), vehicle: saline with Tween-80
[6] = endpoint: mean survival time, dose: 100.0 mg/kg/injection, schedule: Q01DX009 (ip), vehicle: saline with Tween-80
[7] = endpoint: mean survival time, dose: 100.0 mg/kg/injection, schedule: Q01DX001 (ip), vehicle: saline with Tween-80
[8] = endpoint: mean survival time, dose: 200.0 mg/kg/injection, schedule: Q01DX001 (ip), vehicle: saline with Tween-80
[9] = endpoint: mean survival time, dose: 400.0 mg/kg/injection, schedule: Q01DX001 (ip), vehicle: saline with Tween-80
[10] = endpoint: mean survival time, dose: 100.0 mg/kg/injection, schedule: Q01DX001 (ip), vehicle: saline
[11] = endpoint: mean survival time, dose: 200.0 mg/kg/injection, schedule: Q01DX001 (ip), vehicle: saline
[12] = endpoint: mean survival time, dose: 400.0 mg/kg/injection, schedule: Q01DX001 (ip), vehicle: saline
[13] = endpoint: mean survival time, dose: 400.0 mg/kg/injection, schedule: Q01DX009 (ip), vehicle: saline with Tween-80
[14] = endpoint: mean survival time, dose: 100.0 mg/kg/injection, schedule: Q04DX002 (ip), vehicle: saline with Tween-80
[15] = endpoint: mean survival time, dose: 200.0 mg/kg/injection, schedule: Q04DX002 (ip), vehicle: saline with Tween-80
[16] = endpoint: mean survival time, dose: 400.0 mg/kg/injection, schedule: Q04DX002 (ip), vehicle: saline with Tween-80
[17] = endpoint: mean survival time, dose: 100.0 mg/kg/injection, schedule: Q04DX003 (ip), vehicle: saline
[18] = endpoint: mean survival time, dose: 200.0 mg/kg/injection, schedule: Q04DX003 (ip), vehicle: saline

With `Cc1ccc(N2OCCN(C(=O)c3ccc([N+](=O)[O-])cc3)C2c2ccccc2)cc1` (stereo not given) the T/C [1] was 98 % of control, the T/C [2] was 97 % of control and the T/C [3] was 98 % of control.

In the case of `CCCSCC`, the T/C [4] is reported as 98 % of control, the T/C [5] is reported as 106 % of control and the T/C [6] is reported as 95 % of control and 96 % of control.

For `CN(C)C1CCc2ccc3ccccc3c2C1=O` (stereo not given), the T/C (endpoint: mean survival time, dose: 12.5 mg/kg/injection, schedule: Q01DX009 (ip), vehicle: saline) was 105 % of control, the T/C (endpoint: mean survival time, dose: 25.0 mg/kg/injection, schedule: Q01DX009 (ip), vehicle: saline) was 102 % of control and the T/C (endpoint: mean survival time, dose: 50.0 mg/kg/injection, schedule: Q01DX009 (ip), vehicle: saline) was 105 % of control.

In the case of `O=c1nc(NCC2CCCO2)ccn1C1OC(CO)C(O)C1O` (stereo not given), the T/C (endpoint: median survival time, dose: 12.5 mg/kg/injection, schedule: Q01DX005 (ip), vehicle: water) is reported as 101 % of control, the T/C (endpoint: median survival time, dose: 25.0 mg/kg/injection, schedule: Q01DX005 (ip), vehicle: water) is reported as 101 % of control and the T/C (endpoint: median survival time, dose: 50.0 mg/kg/injection, schedule: Q01DX005 (ip), vehicle: water) is reported as 101 % of control. For the same compound, the T/C (endpoint: median survival time, dose: 100.0 mg/kg/injection, schedule: Q01DX005 (ip), vehicle: water) was 97 % of control and the T/C (endpoint: median survival time, dose: 200.0 mg/kg/injection, schedule: Q01DX005 (ip), vehicle: water) was 98 % of control.

In the case of `CN(Cc1ccc(Cl)cc1)N=Nc1ccc(C(=O)O)cc1`, the T/C (endpoint: mean survival time, dose: 7.9 mg/kg/injection, schedule: Q01DX009 (ip), vehicle: other) is reported as 94 % of control, the T/C (endpoint: mean survival time, dose: 15.7 mg/kg/injection, schedule: Q01DX009 (ip), vehicle: other) is reported as 94 % of control and the T/C (endpoint: mean survival time, dose: 31.3 mg/kg/injection, schedule: Q01DX009 (ip), vehicle: other) is reported as 105 % of control. For the same compound, the T/C (endpoint: mean survival time, dose: 62.5 mg/kg/injection, schedule: Q01DX009 (ip), vehicle: other) was 90 % of control, the T/C (endpoint: mean survival time, dose: 100.0 mg/kg/injection, schedule: Q01DX009 (ip), vehicle: other) was 101 % of control and the T/C (endpoint: mean survival time, dose: 125.0 mg/kg/injection, schedule: Q01DX009 (ip), vehicle: other) was 97 % of control. For the same compound, the T/C (endpoint: mean survival time, dose: 200.0 mg/kg/injection, schedule: Q01DX009 (ip), vehicle: other) was 93 % of control.

`CCCCCCCCCCCCCCCCCCCCC1CCCCC1` was tested, and the T/C [7] was 91 % of control, the T/C [8] was 98 % of control and the T/C [9] was 92 % of control.

For `O=CC(O)C(O)C(O)C(O)C(O)CO` (stereo not given), the T/C [10] was 94 % of control, the T/C [11] was 103 % of control and the T/C [12] was 97 % of control.

With `CCCCCCCC(=O)Nc1ccc(CC)cc1` the T/C [6] was 107 % of control, the T/C [1] was 95 % of control and the T/C (endpoint: mean survival time, dose: 200.0 mg/kg/injection, schedule: Q01DX009 (ip), vehicle: saline with Tween-80) was 105 % of control. The T/C [2] was 103 % of control, the T/C [13] was 107 % of control and the T/C [3] was 93 % of control.

In the case of `CC1=C(C)C2(C)C(C)C2(C)C1C` (stereo not given), the T/C [1] is reported as 90 % of control, the T/C [2] is reported as 110 % of control and the T/C [3] is reported as 98 % of control.

`CN1CCN(Cc2nc3cccc4c3c([n+]2[O-])-c2ccccc2-4)CC1` was tested, and the T/C (endpoint: mean survival time, dose: 12.5 mg/kg/injection, schedule: Q01DX009 (ip), vehicle: saline with Tween-80) was 91 % of control and 97 % of control and 102 % of control, the T/C [4] was 96 % of control and 101 % of control and 102 % of control and the T/C [5] was 94 % of control and 102 % of control and 103 % of control. The T/C [6] was 117 % of control and 105 % of control and 108 % of control.

With `O=C1c2ccccc2C(=O)c2c1cccc2N1CCOCC1` the T/C (endpoint: mean survival time, dose: 25.0 mg/kg/injection, schedule: Q04DX002 (ip), vehicle: Klucel (hydroxypropylcellulose) (HPC)) was 96 % of control, the T/C (endpoint: mean survival time, dose: 50.0 mg/kg/injection, schedule: Q04DX002 (ip), vehicle: Klucel (hydroxypropylcellulose) (HPC)) was 102 % of control and the T/C (endpoint: mean survival time, dose: 100.0 mg/kg/injection, schedule: Q04DX002 (ip), vehicle: Klucel (hydroxypropylcellulose) (HPC)) was 102 % of control. For the same compound, the T/C (endpoint: mean survival time, dose: 200.0 mg/kg/injection, schedule: Q04DX002 (ip), vehicle: Klucel (hydroxypropylcellulose) (HPC)) was 96 % of control.

With `COC1OC(COC(c2ccccc2)(c2ccccc2)c2ccccc2)C(OC)C(OC)C1NC(C)=O` (stereo not given) the T/C (endpoint: mean survival time, dose: 100.0 mg/kg/injection, schedule: Q01DX001 (ip), vehicle: Klucel (hydroxypropylcellulose) (HPC)) was 91 % of control, the T/C (endpoint: mean survival time, dose: 200.0 mg/kg/injection, schedule: Q01DX001 (ip), vehicle: Klucel (hydroxypropylcellulose) (HPC)) was 96 % of control and the T/C (endpoint: mean survival time, dose: 400.0 mg/kg/injection, schedule: Q01DX001 (ip), vehicle: Klucel (hydroxypropylcellulose) (HPC)) was 96 % of control.

For `C/C(CCc1cnc2ccccc2c1)=N/NC(N)=O`, the T/C [14] was 96 % of control, the T/C [15] was 88 % of control and the T/C [16] was 103 % of control.

In the case of `CCOC(=O)Nc1ccc2c(c1)Cc1cc(N=Cc3ccc4c(c3)OCO4)ccc1-2`, the T/C (endpoint: mean survival time, dose: 100.0 mg/kg/injection, schedule: Q01DX001 (ip), vehicle: carboxymethylcellulose (CMC)) is reported as 105 % of control, the T/C (endpoint: mean survival time, dose: 200.0 mg/kg/injection, schedule: Q01DX001 (ip), vehicle: carboxymethylcellulose (CMC)) is reported as 100 % of control and the T/C (endpoint: mean survival time, dose: 400.0 mg/kg/injection, schedule: Q01DX001 (ip), vehicle: carboxymethylcellulose (CMC)) is reported as 97 % of control.

With `O=S(=O)(SC1=NCCN1)c1ccccc1` the T/C [10] was 101 % of control, the T/C [11] was 97 % of control and the T/C [12] was 101 % of control.

In the case of `Cc1ccc(C(=O)/C=C/c2ccccc2)cc1`, the T/C (endpoint: mean survival time, dose: 25.0 mg/kg/injection, schedule: Q01DX009 (ip), vehicle: Klucel (hydroxypropylcellulose) (HPC)) is reported as 86 % of control, the T/C (endpoint: mean survival time, dose: 50.0 mg/kg/injection, schedule: Q01DX009 (ip), vehicle: Klucel (hydroxypropylcellulose) (HPC)) is reported as 88 % of control and the T/C [7] is reported as 108 % of control. The T/C (endpoint: mean survival time, dose: 100.0 mg/kg/injection, schedule: Q01DX009 (ip), vehicle: Klucel (hydroxypropylcellulose) (HPC)) was 86 % of control, the T/C [8] was 100 % of control and the T/C (endpoint: mean survival time, dose: 200.0 mg/kg/injection, schedule: Q01DX009 (ip), vehicle: Klucel (hydroxypropylcellulose) (HPC)) was 86 % of control. For the same compound, the T/C [9] was 100 % of control.

In the case of `CCCNC(=O)OCC#CC#CCOC(=O)NCCC`, the T/C (endpoint: mean survival time, dose: 100.0 mg/kg/injection, schedule: Q04DX003 (ip), vehicle: Klucel (hydroxypropylcellulose) (HPC)) is reported as 94 % of control, the T/C (endpoint: mean survival time, dose: 200.0 mg/kg/injection, schedule: Q04DX003 (ip), vehicle: Klucel (hydroxypropylcellulose) (HPC)) is reported as 98 % of control and the T/C (endpoint: mean survival time, dose: 400.0 mg/kg/injection, schedule: Q04DX003 (ip), vehicle: Klucel (hydroxypropylcellulose) (HPC)) is reported as 96 % of control.

With `CCOC(=O)c1[nH]cnc1/N=N/N(C)CCO` the T/C [1] was 106 % of control, the T/C [2] was 111 % of control and the T/C (endpoint: mean survival time, dose: 264.0 mg/kg/injection, schedule: Q01DX009 (ip), vehicle: saline sonified) was 160 % of control. For the same compound, the T/C (endpoint: mean survival time, dose: 400.0 mg/kg/injection, schedule: Q01DX009 (ip), vehicle: saline sonified) was 162 % of control, the T/C [13] was 150 % of control and the T/C [3] was 109 % of control. For the same compound, the T/C (endpoint: mean survival time, dose: 600.0 mg/kg/injection, schedule: Q01DX009 (ip), vehicle: saline sonified) was 165 % of control.

`CC(=O)Nc1ccc2c(c1)C(N1CC3CCC(CC3)C1)c1ccccc1-2` (stereo not given) was tested, and the T/C (endpoint: mean survival time, dose: 50.0 mg/kg/injection, schedule: Q04DX003 (ip), vehicle: saline) was 105 % of control, the T/C [17] was 103 % of control and the T/C [18] was 103 % of control.

With `CN(C)/C=N/c1c(CO)c(-c2ccccc2)nn1-c1ccccc1` the T/C [1] was 101 % of control, the T/C [2] was 95 % of control and the T/C [3] was 95 % of control.

With `COc1cc(-c2ccc(N)c(OC)c2)ccc1N` the T/C [7] was 100 % of control, the T/C (endpoint: mean survival time, dose: 100.0 mg/kg/injection, schedule: Q01DX009 (ip), vehicle: saline) was 96 % of control and 100 % of control and the T/C [14] was 102 % of control. The T/C [17] was 97 % of control, the T/C [8] was 96 % of control and the T/C (endpoint: mean survival time, dose: 200.0 mg/kg/injection, schedule: Q01DX009 (ip), vehicle: saline) was 100 % of control and 102 % of control. For the same compound, the T/C [15] was 100 % of control, the T/C [18] was 94 % of control and the T/C [9] was 103 % of control. For the same compound, the T/C [16] was 100 % of control and the T/C (endpoint: mean survival time, dose: 400.0 mg/kg/injection, schedule: Q04DX003 (ip), vehicle: saline) was 103 % of control.

For `[Cl][Sb]([c]1ccccc1)([c]1ccccc1)([c]1ccccc1)[c]1ccccc1`, the T/C (endpoint: mean survival time, dose: 4.7 mg/kg/injection, schedule: Q04DX003 (ip), vehicle: saline) was 98 % of control and the T/C (endpoint: mean survival time, dose: 9.4 mg/kg/injection, schedule: Q04DX003 (ip), vehicle: saline) was 102 % of control.

In the case of `CCCCCCCCCCCCCC(CCCCCCCCCC)CCCCCCCCCC`, the T/C [7] is reported as 98 % of control, the T/C [8] is reported as 103 % of control and the T/C [9] is reported as 104 % of control.
